Results as given in ChEMBL document CHEMBL5523751, “Discovery of Novel Diaryl-Substituted Fused Heterocycles Targeting Katanin and Tubulin with Potent Antitumor and Antimultidrug Resistance Efficacy” (J Med Chem, 2024).
Activity calls are given as the source filed them. No cut-off for these calls is given here.

Legend:
[1] = target: T1, Katanin p60 ATPase-containing subunit A1 (Homo sapiens, UniProt O75449); assay: Binding affinity to N-terminal human Katanin p60 (8 to 229 residues) expressed in Escherichia coli Rosetta (DE3) assessed as dissociation constant by SPR analysis
T1 sequence (O75449 whole entry, the tested form may be a part): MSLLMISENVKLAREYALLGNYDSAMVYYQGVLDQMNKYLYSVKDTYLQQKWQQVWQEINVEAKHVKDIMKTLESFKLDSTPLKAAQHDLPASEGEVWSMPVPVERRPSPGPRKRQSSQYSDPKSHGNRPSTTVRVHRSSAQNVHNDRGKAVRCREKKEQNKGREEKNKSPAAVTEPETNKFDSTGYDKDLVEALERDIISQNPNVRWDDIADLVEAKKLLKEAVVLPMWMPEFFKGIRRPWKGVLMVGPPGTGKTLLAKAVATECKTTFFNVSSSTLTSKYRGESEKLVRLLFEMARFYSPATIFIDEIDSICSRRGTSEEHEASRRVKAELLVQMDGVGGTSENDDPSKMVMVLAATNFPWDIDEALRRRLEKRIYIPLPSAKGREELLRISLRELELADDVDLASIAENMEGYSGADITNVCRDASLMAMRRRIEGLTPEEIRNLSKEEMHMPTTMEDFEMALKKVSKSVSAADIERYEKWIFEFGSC

[2] = target: T1, Katanin p60 ATPase-containing subunit A1; assay: Binding affinity to C-terminal human Katanin p60 (111 to 491 residues) expressed in Escherichia coli Rosetta (DE3) assessed as dissociation constant by SPR analysis
[3] = AUC (0 to infinity) in mouse at 15 mg/kg, po measured upto 24 hrs by LC-MS/MS analysis; format: ADME, organism-based; settings: in vivo
MDA-MB-231 [4] = assay: Inhibition of cell migration in human MDA-MB-231 cells assessed as delay in wound healing at 10 to 20 nM by inverted microscopy based analysis; format: functional; settings: dose 10-20 nM
A549 = assay: Antiproliferative activity against human A549 assessed as inhibition of cell growth measured after 48 hrs by MTT assay; format: functional, cell-based; settings: A549, 48 h
[5] = Toxicity in Balb/C nude mouse assessed as drug tolerance at 15 mg/kg, ip measured upto 2 weeks; format: organism-based; settings: in vivo, 336 h
MCF7 [6] = assay: Antiproliferative activity against human MCF7 cells assessed as inhibition of cell growth measured after 48 hrs by MTT assay; format: functional, cell-based; settings: MCF7, 48 h
[7] = Stability in mouse plasma assessed as half life at 1 uM measured upto 120 mins by LC-MS/MS analysis; format: ADME, cell-free
SK-OV-3 = assay: Antiproliferative activity against human SK-OV-3 cells assessed as inhibition of cell growth measured after 48 hrs by MTT assay; format: functional, cell-based; settings: SK-OV-3, 48 h
[8] = Toxicity in Balb/C nude mouse xenografted with A549/Taxol assessed as effect on liver at 15 mg/kg, ip measured after 14 days by H and E staining based analysis; format: organism-based, A549/TR; settings: in vivo, 336 h, time 14 day
[9] = AUC (0 to t) in mouse at 3 mg/kg, iv measured upto 24 hrs by LC-MS/MS analysis; format: ADME, organism-based; settings: in vivo
[10] = Antiproliferative activity against human CDDP-resistant A549 cell assessed as inhibition of cell growth measured after 48 hrs by MTT assay; format: functional, cell-based
HUVEC = assay: Anti-angiogenesis activity in human HUVEC cells assessed as disruption of capillary tube formation at 60 nM incubated for 6 hrs by inverted microscopic analysis relative to control; format: functional
MCF7 [11] = assay: Upregulation of histone H3 phosphorylation level in human MCF7 cells at 1 to 10 nM by Western blot analysis; format: functional, cell-based; settings: dose 1-10 nM
MCF7 [12] = assay: Induction of apoptosis in human MCF7 cells assessed as viable cells at 10 nM measured after 48 hrs by annexin-FITC and propidium iodide staining based flow cytometry analysis (reference value: 94.69%); format: functional; settings: read-out: Activity
Sus scrofa = species on record: Sus scrofa; assay: (§1) Inhibition of porcine brain tubulin polymerization; settings: dose 0.4-12 µM
[13] = as §1; parameters: species or system Sus scrofa
A549/TR = assay: Antitumor activity against paclitaxel resistant human A549/Taxol cells xenografted in BALB/c nude mouse model assessed as inhibition of tumor growth at 15 mg/kg, ip measured after 14 days relative to control; format: functional; parameters: scale not given: the % may be the effect or the level left; settings: time 14 day
[14] = MRT (0 to t) in mouse at 15 mg/kg, po measured upto 24 hrs by LC-MS/MS analysis; format: ADME, organism-based; settings: in vivo
[15] = Half life in mouse at 15 mg/kg, po measured upto 24 hrs by LC-MS/MS analysis; format: ADME, organism-based; settings: in vivo
[16] = Toxicity in Balb/C nude mouse xenografted with A549/Taxol assessed as changes in blood routine parameters at 15 mg/kg, ip measured after 14 days by biochemical assay; format: organism-based, A549/TR; settings: in vivo, 336 h, time 14 day
MCF7 [17] = assay: Induction of apoptosis in human MCF7 cells assessed as late apoptotic cells at 20 nM measured after 48 hrs by annexin-FITC and propidium iodide staining based flow cytometry analysis (reference value: 3.93%); format: functional
DU-145 = assay: Antiproliferative activity against human DU-145 assessed as inhibition of cell growth measured after 48 hrs by MTT assay; format: functional, cell-based; settings: DU-145, 48 h
[18] = Toxicity in Balb/C nude mouse assessed as abnormalities in liver at 7.5 to 15 mg/kg, ip measured after 14 days by H and E staining based analysis; format: organism-based; settings: in vivo, 336 h, dose 7.5-15 mg/kg, time 14 day
MCF7 [19] = assay: Induction of cell cycle arrest in human MCF7 cells assessed as accumulation of cells at G2/M phase at 10 nM measured after 24 hrs by propidium iodide staining based flow cytometry analysis (reference value: 26%); format: functional
[20] = Cmax in mouse at 3 mg/kg, iv measured upto 24 hrs by LC-MS/MS analysis; format: ADME, organism-based; settings: in vivo
MCF7 [21] = assay: Induction of apoptosis in human MCF7 cells assessed as upregulation of bad protein level by Western blot analysis; format: functional, cell-based; settings: dose 10-40 nM
[22] = Toxicity in Balb/C nude mouse xenografted with A549/Taxol assessed as effect on body weight at 15 mg/kg, ip measured after 14 days by H and E staining based analysis; format: organism-based, A549/TR; settings: in vivo, 336 h, time 14 day
MCF7 [23] = assay: Induction of apoptosis in human MCF7 cells assessed as early apoptotic cells at 10 nM measured after 48 hrs by annexin-FITC and propidium iodide staining based flow cytometry analysis (reference value: 1.20%); format: functional
MDA-MB-231 [24] = assay: Antitumor activity against human MDA-MB-231 cells xenografted in BALB/c nude mouse model assessed as increase in tumor necrosis at 7.5 to 15 mg/kg, ip measured after 14 days by H and E staining based analysis; format: functional, organism-based; settings: dose 7.5-15 mg/kg, time 14.0 day
MDA-MB-231 [25] = assay: Antitumor activity against human MDA-MB-231 cells xenografted in BALB/c nude mouse model assessed as inhibition of tumor growth volume administered as IP dose measured after 14 days; format: functional; settings: dose 7.5-15 mg/kg, time 14.0 day
MCF7 [26] = assay: Induction of apoptosis in human MCF7 cells assessed as necrotic cells at 20 nM measured after 48 hrs by annexin-FITC and propidium iodide staining based flow cytometry analysis (reference value: 0.18%); format: functional
MCF7 [27] = assay: Induction of apoptosis in human MCF7 cells assessed as necrotic cells at 10 nM measured after 48 hrs by annexin-FITC and propidium iodide staining based flow cytometry analysis (reference value: 0.18%); format: functional
[28] = Acute toxicity in ICR mouse assessed as animal death at 150 mg/kg, ip measured after 3 to 14 days; format: organism-based; settings: in vivo, time 3-14 day
U-87 MG = assay: Antiproliferative activity against human U-87 MG assessed as inhibition of cell growth measured after 48 hrs by MTT assay; format: functional, cell-based, U-87MG ATCC
MCF7 [29] = assay: Induction of apoptosis in human MCF7 cells assessed as late apoptotic cells at 10 nM measured after 48 hrs by annexin-FITC and propidium iodide staining based flow cytometry analysis (reference value: 3.93%); format: functional
MCF7 [30] = assay: Induction of apoptosis in human MCF7 cells assessed as upregulation of PARP-1 protein level by Western blot analysis; format: functional, cell-based; settings: dose 10-40 nM
[31] = AUC (0 to infinity) in mouse at 3 mg/kg, iv measured upto 24 hrs by LC-MS/MS analysis; format: ADME, organism-based; settings: in vivo

## COc1cc(-n2cnc3ccc(-c4ccc(C)c(N)c4)nc32)cc(OC)c1OC
[1]
  Kd: 1810 nM
[2]
  Kd: > 50000 nM
[3]
  AUC(0-inf): 1340 ng·h/mL
MDA-MB-231 [4]
  inhibition: Active
A549
  IC50: 1 nM
[5]
  Activity: Non-Toxic
MCF7 [6]
  IC50: 1 nM
[7]
  half-life at 1 µM: 39 h
SK-OV-3
  IC50: 0.8 nM
[8]
  Activity: Non-Toxic
[9]
  AUC(0-t) at 24 h: 666 ng·h/mL
[10]
  IC50: 2 nM
HUVEC
  Activity: 100%
MCF7 [11]
  Activity: Active
MCF7 [12]
  viability at 0.01 µM: 53.3%
Sus scrofa
  inhibition: Dose-Dependent Effect
[13]
  IC50: 2000 nM
A549/TR
  Activity: 74%
[14]
  MRT last at 24 h: 1.83 h
[15]
  half-life: 1.92 h
[16]
  Activity: Toxic
MCF7 [17]
  Activity: 21.54%
DU-145
  IC50: 4 nM
[18]
  Activity: Non-Toxic
MCF7 [19]
  Activity: ~67%
[20]
  Cmax: 1650 ng/mL
MCF7 [21]
  Activity: Dose-Dependent Effect
[22]
  Activity: Non-Toxic
MCF7 [23]
  Activity: 29.59%
MDA-MB-231 [24]
  Activity: Active
MDA-MB-231 [25]
  Activity: Dose-Dependent Effect
MCF7 [26]
  Activity: 0.62%
MCF7 [27]
  Activity: 0.41%
[28]
  Activity: Non-Toxic
U-87 MG
  IC50: 15 nM
MCF7 [29]
  Activity: 16.7%
MCF7 [30]
  Activity: Dose-Dependent Effect
[31]
  AUC(0-inf): 668 ng·h/mL
